Results as given in US20120010264A1, “NOVEL MEDICAMENT FOR TREATING COGNITIVE IMPAIRMENT” (Dainippon Sumitomo Pharma Co., Ltd., priority 2009, published 2012).
Like-named read-outs stand apart in the source and are kept apart here.

Experiments:
[1] = Brain delivery property: brain tissue and plasma concentration after oral administration; assay type: in vivo; details: female, 10 mg/kg oral, one portion, C57BL/6J mouse; for Kp: brain and plasma, read-out: Kp value (brain/plasma AUC0-6 hr ratio); for half-life / AUC(0-t): non-fasting; for AUC(0-t): read-out: AUC0-6 hr
Description: Method: Compound A or rosiglitazone (10 mg/kg) was orally administered in one portion to a mouse (C57BL/6J: female, 11 weeks old, 3 mice at each measuring point) under non-fasting condition. Its brain tissue and plasma were sequentially sampled for 6 hours after the administration to measure the concentration of the administered-compound. Based on each mean value of the concentrations in its brain tissue and plasma measured at several time points, each elimination half-life (t1/2) and area under the curve (AUC0-6hr) of the administered-compound were calculated.

scavenger receptor CD36 = assay: CD36 transcription level in microglial cells by real-time RT-PCR; assay type: cell-based; details: 0.5 μM, 24 hours, neonatal rat microglial cells
Description: Microglial cells derived from neonatal rats (Sumitomo Bakelite) were cultured for 24 hours in a culture medium containing Compound A (0.5 μM or 5 μM). Then, total RNA was extracted from the cells, and therewith the transcription levels of scavenger receptor CD36 and glyceraldehyde-3-phosphate dehydrogenase (GAPDH) were measured by real-time RT-PCR to calculate the CD36 transcription level as a value relative to the GAPDH transcription level. In order to compare the CD36 transcription levels treated in the different conditions, CD36 transcription level in the control that was cultured for 24 hours with only DMSO which was used as a solvent in the above cultivation of Compound A was measured, and then the relative ratio of each CD36 transcription level of Compound A per that of the control (=1) was calculated.

[2] = system: LPS-induced cognitive impairment mouse; assay: LPS-induced cognitive impairment model, Y-maze test (alternation behavior); assay type: in vivo; details: LPS i.c.v., percentage of alternation behavior in Y-maze
Description: It is known that lipopolysaccharide (LPS) can experimentally induce an inflammatory condition in brain like in Alzheimer's dementia patients. Thus, LPS-induced model is thought as a good disease model to study cognitive impairment caused by inflammation in Alzheimer's dementia (Neurosci. Res., 61, 113, 2008).
In Example 4-2, 5 μg of LPS (Eschenchia coli 055:B5, SIGMA) was intracerebroventricularly administered to a mouse (Slc:ddY mouse, 4 weeks old, male, Japan SLC, Inc.) in both ventricles, i.e. 2.5 μl of 1 mg/ml LPS was administered to each ventricle. LPS induced cognitive impairment in Y-maze test was appeared 4 days after treatment. (i.e. decrease of alternation behavior). Compound A (10, 30, 100 mg/kg, p.o., n=14-16) or rosiglitazone (1, 3, 10 mg/kg, p.o., n=8) was administered 30 minutes before the LPS administration, and 1, 2, 3 days after the LPS administration, and also 1 hour before the Y-maze test to evaluate the effect for improving cognitive function. 0.5% Methylcellulose solution was used as a solvent of each compound.

[3] = system: rats with scopolamine-induced cognitive impairment; assay: Scopolamine-induced cognitive impairment model, passive avoidance test; assay type: in vivo, rat; details: for Step-through latency: scopolamine 0.5 mg/kg i.p., rat, mean ± standard error, n = 11, up to 300 seconds
Excerpt: It is known that scopolamine is a muscarinic acetylcholine receptor antagonist which causes memory impairment in animals and human. Thus, in order to evaluate the efficacy of an anti-Alzheimer's drug, a scopolamine-induced cognitive-impairment model is used in many evaluation tests of cognitive function including a passive avoidance test (Eur. J. Pharmacol., 383, 231, 1999). In Example 6, the effect of Compound A and rosiglitazone on cognitive function was studied using a passive avoidance test using rats with scopolamine-induced cognitive impairment.
Compound A (3, 10, 30 mg/kg) or rosiglitazone (1, 3, 10 mg/kg) was orally administered to a rat 60 minutes before training for the passive avoidance test. Scopolamine (0.5 mg/kg) or saline was intraperitoneally administered 30 minutes before the training. In the training period, the rat was put in a bright compartment and was allowed to explore for 10 seconds. Then, a door between the bright compartment and the dark one was opened, and as the rat went into the dark compartment, the door was closed. Three seconds later, the rat was given electroconvulsive shock (0.5 mA, 3 seconds). The passive avoidance response test was carried out 24 hours after the training. The rat was put in the bright compartment and was monitored to record the time that the rat stayed in the bright compartment (step-through latency) for up to 300 seconds. Dunnett's multiple comparison test (two-sided significance level 5%) was carried out to compare the step-through latency between the scopolamine treatment group and the scopolamine+test medicament treatment group. […] 0.5% Methylcellulose solution was used as a solvent of each compound.

[4] = Fluid retention as side effect: hematocrit level in high-fat diet obese diabetes mice; details: for Hematocrit level: high-fat diet mouse; for Effect on hematocrit level in mice (summary of Example 5): dose not stated
[5] = post-marketing surveillance; cited from earlier work
[6] = mouse, in vivo
[7] = 3 mg/kg oral once a day for 8 weeks
[8] = 10 mg/kg oral once a day for 8 weeks

SMILES | Kp [1] | half-life ([1]; brain) | AUC(0-t) ([1]; brain) | half-life ([1]; plasma) | AUC(0-t) ([1]; plasma) | Alternation behavior ([2]; 10 mg/kg p.o.) | Step-through latency ([3]; 3 mg/kg p.o.) | Hematocrit level [4, 7] | Hematocrit level [4, 8] | Effect on hematocrit level in mice (summary of Example 5) [4] | further results
Cc1ccc(C(=O)c2cccn2C/C=C/c2ccc(COC(C)(C)C(=O)O)cc2)cc1 [Compound A, 2-Methyl-2-[(4-{(1E)-3-[2-(4-methylbenzoyl)-1H-pyrrol-1-yl]prop-1-en-1-yl}benzyl)oxy]propionic acid] | 0.154 | 4.26 h | 1500 ng·h/mL | 4.59 h | 9710 ng·h/mL | 66.5 ± 2.8 | 162.5 ± 28.2 s | 47.7 ± 2.0% | 48.7 ± 1.2% | did not significantly affect | CD36 transcription level relative to GAPDH, ratio per DMSO control (=1) (scavenger receptor CD36): 1.44; Effect on cognitive function (step-through latency) ([3]; single oral administration 3-30 mg/kg, scopolamine rat): improved cognitive function in a dose-dependent manner; Hematocrit level ([4]; 30 mg/kg oral once a day for 8 weeks): 48.7 ± 1.5%
CN(CCOc1ccc(CC2SC(=O)NC2=O)cc1)c1ccccn1 (stereo not drawn) [Rosiglitazone, rosiglitazone] | 0.0451 | 1.06 h | 1820 ng·h/mL | 1.26 h | 40400 ng·h/mL | 73.4 ± 2.7 | 164.5 ± 33.1 s | 44.7 ± 1.5 % | 41.1 ± 4.9 % | decreased | Alternation behavior ([2]; 1 mg/kg p.o.): 68.4 ± 5.0; Alternation behavior ([2]; 3 mg/kg p.o.): 71.9 ± 4.1; Step-through latency ([3]; 1 mg/kg p.o.): 144.8 ± 28.3 s; Step-through latency ([3]; 10 mg/kg p.o.): 170.7 ± 30.2 s; Frequency of fluid retention (peripheral edema) [5]: high; Hematocrit level ([4]; 0.1 mg/kg oral once a day for 8 weeks): 47.4 ± 1.9%; Hematocrit level ([4]; 0.3 mg/kg oral once a day for 8 weeks): 46.6 ± 1.9 %; Hematocrit level ([4]; 1 mg/kg oral once a day for 8 weeks): 45.6 ± 0.9 %; Change of hematocrit level vs solvent ([4]; dose of 0.3 mg/kg or more, oral once a day for 8 weeks): significantly decreased
CCc1ccc(CCOc2ccc(CC3SC(=O)NC3=O)cc2)nc1 (stereo not drawn) [pioglitazone] |  |  |  |  |  |  |  |  |  |  | Effect on hematocrit level in mice (summary of Example 5) [6]: decreased
